Measurements taken from a compilation of properties of binary mixtures (doi:10.1016/j.molliq.2016.01.096).

Assay: xn = mol fraction of the nth substance listed
Conditions: 100 kPa

CCOS(=O)(=O)[O-].CC[n+]1ccn(C)c1 + CCOCCO
x2 = 0
Conditions	speed of sound [m/s]
298.15 K	1680.8
318.15 K	1632.4
328.15 K	1608.9

CCOCCO + CCOS(=O)(=O)[O-].CC[n+]1ccn(C)c1
speed of sound [m/s]
Conditions	298.15 K	308.15 K	318.15 K	328.15 K
x1 = 0.0588	–	–	1620.5	–
x1 = 0.1202	1654.9	1630.3	–	1581.6
x1 = 0.1846	1638.2	1613.2	1588.4	1563.9
x1 = 0.2326	–	1599.2	–	–
x1 = 0.3548	1586.6	1560.3	1534.4	1509
x1 = 0.4516	–	1526.4	1499.8	1473.7
x1 = 0.5511	1516.8	1488.9	1461.4	–
x1 = 0.6529	1476.3	1447.6	1419.1	1390.8
x1 = 0.741	–	–	1379.3	–
x1 = 0.8273	–	–	1336.7	1305.7
x1 = 0.8658	–	–	1316.4	–
x1 = 0.9094	1356.8	1324.7	1291.9	1259.3
x1 = 0.9512	1333.2	1300.2	1266.4	1232.9
x1 = 1	1302.8	1268.6	1233.3	1198.8
